Laboratory results: patent US12582731B2, “Method to decontaminate solid surface” (BIOMONETA RESEARCH PVT LTD, priority 2022, dated 2026)
Where “and” joins values, the source holds several entries; their conditions need not be identical. Identical values can stand only once.

Columns and labels:
Assay type in all cases: cell-based
microbial load [1] = experiment: Microbial load reduction on CTAB-coated polyester cotton fabric, electric field with varying voltage; details: for Microbial load reduction (Log10 scale) at 10 mins: polyester cotton fabric, 0.02±0.005% w/v coating, capacitance 0.05 μF
Protocol: Another set of experiments were conducted wherein the procedure for coating of QAC (CTAB) onto the polyester cotton fabric was identical to the procedure described in Example 1. The CTAB concentration employed was 0.02±0.005% w/v and the final coated amount of QAC (CTAB) was between 0.01-0.05 mg/cm^2 of the solid surface. The electric field in this experiment was applied via. switch mode power supply (SMPS).

microbial load [2] = experiment: Microbial load reduction on QAC-coated cotton cloth with or without electric field; details: for Microbial Load Reduction (Log10 Scale): cotton cloth coated with 0.01% w/v
Protocol: The effect of QAC coating and electric field application on flexible solid surfaces was analysed. The solid surface analysed was fabric (cotton cloth). The procedure for coating of QAC (CTAB or benzalkonium chloride) onto the cotton cloth was identical to the procedure described in Example 1. The final coated amount of QAC (CTAB or benzalkonium chloride) was between 0.01-0.05 mg/cm^2 of the solid surface. The electric field in this experiment was applied via. switch mode power supply (SMPS) with a voltage of 4 kV/cm coupled with a capacitance of 0.05 μF for various time-periods.
Reduction in microbial load was analysed using different methods.

microbial load [3] = experiment: Microbial load reduction on cotton cloth coated with quaternary ammonium compound alone; details: no electric field
Protocol: The solid surface (cotton cloth) was suspended in a solution containing cetyltrimethylammonium bromide (CTAB) or alkyl dimethyl benzyl ammonium chloride (benzalkonium chloride) at various concentrations for about 2 hours. The solid surfaces were then heat dried in a furnace where the temperature was set at about 80° C., for about 8 hours. Once dried, the solid surfaces coated with QAC were ready to be used for various applications.
Reduction in microbial load was analysed at different concentrations of QACs.

microbial load [4] = experiment: Microbial load reduction on CTAB-coated polyester cotton fabric, electric field with varying capacitance; details: for Microbial Load Reduction (Log10 Scale): polyester cotton fabric 90:10, 0.02±0.005% w/v coating, electric field 4 kV/cm DC
Protocol: The effect of QAC coating and varying electric field application on solid surfaces was analysed. The solid surface analysed was polyester cotton fabric in the ratio 90:10. The procedure for coating of QAC (CTAB) onto the said polyester cotton fabric was identical to the procedure described in Example 1. The CTAB concentration employed was 0.02±0.005% w/v and the final coated amount of QAC (CTAB) was between 0.01-0.05 mg/cm^2 of the solid surface. The electric field in this experiment was applied via. switch mode power supply (SMPS).

microbial load [5] = experiment: Microbial load reduction on QAC-coated metal surface (aluminium plate) with or without electric field
Protocol: The effect of QAC coating and electric field application on non-flexible/hard solid surfaces was analysed. The solid surface analysed was a metal surface (aluminium plate). The coating procedure of QAC (cetrimonium salt—CTAB) was identical to the procedure described in Example 1. The final coated amount of CTAB was between 0.01-0.05 mg/cm^2 of the solid surface. The electric field in this experiment was applied via. switch mode power supply (SMPS) with a voltage of 4 kV/cm coupled with a capacitance of 0.05 μF for various time-periods.
It was observed that when the metal was coated with low concentration of cetrimonium salt (CTAB) followed by application of electric field, the subjected microbial load was completely eliminated (>7 log10 reduction in microbial load or >99.99999% reduction in microbial load) within 10 minutes [Experiment No. 4]. […] Lastly, under normal conditions, when the metal was left undisturbed, the microbial load remained largely unaltered over a period of 30 minutes [Experiment No. 1].

## CCCCCCCCCCCCCCCC[N+](C)(C)C.[Br-] [CTAB, cetyltrimethylammonium bromide]
Microbial load [1]; coating followed by electric field at voltage lower than 2 kV/cm (0.5, 0.75, 1 or 1.25 kV/cm)
  reduction in the microbial load: no notable reduction in the microbial load
Microbial load [1]; applied voltage 0.5 kV/cm
  Microbial load reduction (Log10 scale) at 10 mins: 1.18 Log10
Microbial load [1]; applied voltage 0.75 kV/cm
  Microbial load reduction (Log10 scale) at 10 mins: 1.22 Log10
Microbial load [1]; applied voltage 1 kV/cm
  Microbial load reduction (Log10 scale) at 10 mins: 1.44 Log10
Microbial load [1]; applied voltage 1.25 kV/cm
  Microbial load reduction (Log10 scale) at 10 mins: 1.68 Log10
Microbial load [1]; applied voltage 2 kV/cm
  Microbial load reduction (Log10 scale) at 10 mins: 7.68 Log10
Microbial load [1]; applied voltage 2.5 kV/cm
  Microbial load reduction (Log10 scale) at 10 mins: 8.78 Log10
Microbial load [1]; applied voltage 3 kV/cm
  Microbial load reduction (Log10 scale) at 10 mins: 9.42 Log10
Microbial load [2]; coated cotton cloth not subjected to electric field, until 30 minutes (Experiment 1 Trial 1 and 3)
  log10 reduction in microbial load: ≤ 2.16 log10
Microbial load [2]; With Electric Field (SMPS, 4 kV/cm, 0.05 μF), 0 mins
  Microbial Load Reduction (Log10 Scale): 0.00 Log10
Microbial load [2]; With Electric Field (SMPS, 4 kV/cm, 0.05 μF), 10 mins
  Microbial Load Reduction (Log10 Scale): 7.48 Log10 and 7.30 Log10
Microbial load [2]; With Electric Field (SMPS, 4 kV/cm, 0.05 μF), 30 mins
  Microbial Load Reduction (Log10 Scale): 7.48 Log10 and 7.30 Log10
Microbial load [2]; Without Electric Field, 0 mins
  Microbial Load Reduction (Log10 Scale): 0.00 Log10
Microbial load [2]; Without Electric Field, 10 mins
  Microbial Load Reduction (Log10 Scale): 1.09 Log10 and 1.06 Log10
Microbial load [2]; Without Electric Field, 30 mins
  Microbial Load Reduction (Log10 Scale): 2.16 Log10 and 2.15 Log10
Microbial load [3]; cotton cloth coated with 0.01% w/v, 0 mins
  Microbial Load Reduction (Log10 Scale): 0.00 Log10
Microbial load [3]; cotton cloth coated with 0.01% w/v, 10 mins
  Microbial Load Reduction (Log10 Scale): 1.11 Log10
Microbial load [3]; cotton cloth coated with 0.01% w/v, 30 mins
  Microbial Load Reduction (Log10 Scale): 2.52 Log10
Microbial load [3]; cotton cloth coated with 0.01% w/v, 45 mins
  Microbial Load Reduction (Log10 Scale): 4.35 Log10
Microbial load [3]; cotton cloth coated with 0.01% w/v, 60 mins
  Microbial Load Reduction (Log10 Scale): 7.60 Log10
Microbial load [3]; cotton cloth coated with 0.01% w/v, 90 mins
  Microbial Load Reduction (Log10 Scale): 7.60 Log10
Microbial load [3]; cotton cloth coated with 0.05% w/v, 0 mins
  Microbial Load Reduction (Log10 Scale): 0.00 Log10
Microbial load [3]; cotton cloth coated with 0.05% w/v, 10 mins
  Microbial Load Reduction (Log10 Scale): 1.18 Log10
Microbial load [3]; cotton cloth coated with 0.05% w/v, 30 mins
  Microbial Load Reduction (Log10 Scale): 2.54 Log10
Microbial load [3]; cotton cloth coated with 0.05% w/v, 45 mins
  Microbial Load Reduction (Log10 Scale): 5.12 Log10
Microbial load [3]; cotton cloth coated with 0.05% w/v, 60 mins
  Microbial Load Reduction (Log10 Scale): 7.32 Log10
Microbial load [3]; cotton cloth coated with 0.05% w/v, 90 mins
  Microbial Load Reduction (Log10 Scale): 7.32 Log10
Microbial load [3]; cotton cloth coated with 0.1% w/v, 0 mins
  Microbial Load Reduction (Log10 Scale): 0.00 Log10
Microbial load [3]; cotton cloth coated with 0.1% w/v, 10 mins
  Microbial Load Reduction (Log10 Scale): 7.41 Log10
Microbial load [3]; cotton cloth coated with 0.1% w/v, 30 mins
  Microbial Load Reduction (Log10 Scale): 7.41 Log10
Microbial load [3]; cotton cloth coated with 0.1% w/v, 45 mins
  Microbial Load Reduction (Log10 Scale): 7.41 Log10
Microbial load [3]; cotton cloth coated with 0.1% w/v, 60 mins
  Microbial Load Reduction (Log10 Scale): 7.41 Log10
Microbial load [3]; cotton cloth coated with 0.1% w/v, 90 mins
  Microbial Load Reduction (Log10 Scale): 7.41 Log10
Microbial load [3]; cotton cloth coated with 0.25% w/v, 0 mins
  Microbial Load Reduction (Log10 Scale): 0.00 Log10
Microbial load [3]; cotton cloth coated with 0.25% w/v, 10 mins
  Microbial Load Reduction (Log10 Scale): 7.45 Log10
Microbial load [3]; cotton cloth coated with 0.25% w/v, 30 mins
  Microbial Load Reduction (Log10 Scale): 7.45 Log10
Microbial load [3]; cotton cloth coated with 0.25% w/v, 45 mins
  Microbial Load Reduction (Log10 Scale): 7.45 Log10
Microbial load [3]; cotton cloth coated with 0.25% w/v, 60 mins
  Microbial Load Reduction (Log10 Scale): 7.45 Log10
Microbial load [3]; cotton cloth coated with 0.25% w/v, 90 mins
  Microbial Load Reduction (Log10 Scale): 7.45 Log10
Microbial load [3]; cotton cloth coated with 0.5% w/v, 0 mins
  Microbial Load Reduction (Log10 Scale): 0.00 Log10
Microbial load [3]; cotton cloth coated with 0.5% w/v, 10 mins
  Microbial Load Reduction (Log10 Scale): 7.00 Log10
Microbial load [3]; cotton cloth coated with 0.5% w/v, 30 mins
  Microbial Load Reduction (Log10 Scale): 7.00 Log10
Microbial load [3]; cotton cloth coated with 0.5% w/v, 45 mins
  Microbial Load Reduction (Log10 Scale): 7.00 Log10
Microbial load [3]; cotton cloth coated with 0.5% w/v, 60 mins
  Microbial Load Reduction (Log10 Scale): 7.00 Log10
Microbial load [3]; cotton cloth coated with 0.5% w/v, 90 mins
  Microbial Load Reduction (Log10 Scale): 7.00 Log10
Microbial load [3]; cotton cloth coated with 0.75% w/v, 0 mins
  Microbial Load Reduction (Log10 Scale): 0.00 Log10
Microbial load [3]; cotton cloth coated with 0.75% w/v, 10 mins
  Microbial Load Reduction (Log10 Scale): 7.78 Log10
Microbial load [3]; cotton cloth coated with 0.75% w/v, 30 mins
  Microbial Load Reduction (Log10 Scale): 7.78 Log10
Microbial load [3]; cotton cloth coated with 0.75% w/v, 45 mins
  Microbial Load Reduction (Log10 Scale): 7.78 Log10
Microbial load [3]; cotton cloth coated with 0.75% w/v, 60 mins
  Microbial Load Reduction (Log10 Scale): 7.78 Log10
Microbial load [3]; cotton cloth coated with 0.75% w/v, 90 mins
  Microbial Load Reduction (Log10 Scale): 7.78 Log10
Microbial load [4]; coating followed by electric field at capacitance 0.00025 μF or 0.000025 μF (Experiments 4 and 5)
  reduction in the microbial load: a notable reduction in the microbial load was observed only around 5 minutes
Microbial load [4]; capacitance 0.000025 μF, 3 mins
  Microbial Load Reduction (Log10 Scale): 1.01 Log10
Microbial load [4]; capacitance 0.000025 μF, 4 mins
  Microbial Load Reduction (Log10 Scale): 2.09 Log10
Microbial load [4]; capacitance 0.000025 μF, 5 mins
  Microbial Load Reduction (Log10 Scale): 3.20 Log10
Microbial load [4]; capacitance 0.00025 μF, 3 mins
  Microbial Load Reduction (Log10 Scale): 1.01 Log10
Microbial load [4]; capacitance 0.00025 μF, 4 mins
  Microbial Load Reduction (Log10 Scale): 3.20 Log10
Microbial load [4]; capacitance 0.00025 μF, 5 mins
  Microbial Load Reduction (Log10 Scale): 4.44 Log10
Microbial load [4]; capacitance 0.0025 μF, 3 mins
  Microbial Load Reduction (Log10 Scale): 2.12 Log10
Microbial load [4]; capacitance 0.0025 μF, 4 mins
  Microbial Load Reduction (Log10 Scale): 3.27 Log10
Microbial load [4]; capacitance 0.0025 μF, 5 mins
  Microbial Load Reduction (Log10 Scale): 6.78 Log10
Microbial load [4]; capacitance 0.025 μF, 3 mins
  Microbial Load Reduction (Log10 Scale): 4.32 Log10
Microbial load [4]; capacitance 0.025 μF, 4 mins
  Microbial Load Reduction (Log10 Scale): 6.78 Log10
Microbial load [4]; capacitance 0.025 μF, 5 mins
  Microbial Load Reduction (Log10 Scale): 6.78 Log10
Microbial load [4]; capacitance 0.05 μF, 3 mins
  Microbial Load Reduction (Log10 Scale): 4.44 Log10
Microbial load [4]; capacitance 0.05 μF, 4 mins
  Microbial Load Reduction (Log10 Scale): 6.78 Log10
Microbial load [4]; capacitance 0.05 μF, 5 mins
  Microbial Load Reduction (Log10 Scale): 6.78 Log10
Microbial load [5]; Metal (aluminium plate) + QAC 0.01% w/v + Electric Field (SMPS, 4 kV/cm, 0.05 μF), 0 mins
  Microbial Load Reduction (Log10 Scale): 0.00 Log10
Microbial load [5]; Metal (aluminium plate) + QAC 0.01% w/v + Electric Field (SMPS, 4 kV/cm, 0.05 μF), 5 mins
  Microbial Load Reduction (Log10 Scale): 5.55 Log10
Microbial load [5]; Metal (aluminium plate) + QAC 0.01% w/v + Electric Field (SMPS, 4 kV/cm, 0.05 μF), 10 mins
  Microbial Load Reduction (Log10 Scale): 7.51 Log10
Microbial load [5]; Metal (aluminium plate) + QAC 0.01% w/v + Electric Field (SMPS, 4 kV/cm, 0.05 μF), 20 mins
  Microbial Load Reduction (Log10 Scale): 7.51 Log10
Microbial load [5]; Metal (aluminium plate) + QAC 0.01% w/v + Electric Field (SMPS, 4 kV/cm, 0.05 μF), 30 mins
  Microbial Load Reduction (Log10 Scale): 7.51 Log10
Microbial load [5]; Metal (aluminium plate) + QAC 0.01% w/v, no electric field, 0 mins
  Microbial Load Reduction (Log10 Scale): 0.00 Log10
Microbial load [5]; Metal (aluminium plate) + QAC 0.01% w/v, no electric field, 5 mins
  Microbial Load Reduction (Log10 Scale): 0.22 Log10
Microbial load [5]; Metal (aluminium plate) + QAC 0.01% w/v, no electric field, 10 mins
  Microbial Load Reduction (Log10 Scale): 0.42 Log10
Microbial load [5]; Metal (aluminium plate) + QAC 0.01% w/v, no electric field, 20 mins
  Microbial Load Reduction (Log10 Scale): 0.57 Log10
Microbial load [5]; Metal (aluminium plate) + QAC 0.01% w/v, no electric field, 30 mins
  Microbial Load Reduction (Log10 Scale): 0.95 Log10
Microbial load [5]; metal coated with CTAB alone, at 30 minutes (Experiment No. 3)
  reduction in the microbial load: no significant reduction in the microbial load
